Like-named read-outs stand apart in the source and are kept apart here.
Columns and labels:
[1] = system: ZIKV-RLuc (Cambodian strain FSS13025); assay: microbe, parasite or virus in culture; format: cell-based, Zika virus; settings: for AC50: Zika virus, Vero
[2] = read-out: Log AC50 (M) (converted)

## C[C@@H](Oc1cc(-n2cnc3ccc(CN4CCN(C)CC4)cc32)sc1C(N)=O)c1ccccc1C(F)(F)F [NCGC00263112-01]
[1]
  CC-v2 (curve class classification v2 of the dose response curve): -2.1
  Efficacy (difference between neutral response and maximum compound response): -113.144
  Max Resp (difference between neutral response and compound response for highest compound concentration): -99.466
  AC50: 6.76e-06 M
[1]; [2]
  AC50: 6.76e-06 M
Vero cells
  AC50: 6.76 µM
  Log AC50 (M): -5.1699 M

## CC(=O)c1c(C)c2cnc(Nc3ccc(N4CCNCC4)cn3)nc2n(C2CCCC2)c1=O [NCGC00263129-04]
[1]
  CC-v2 (curve class classification v2 of the dose response curve): -2.2
  Efficacy (difference between neutral response and maximum compound response): -88.43
  Max Resp (difference between neutral response and compound response for highest compound concentration): -70.898
  AC50: 1.65e-05 M
[1]; [2]
  AC50: 1.65e-05 M
Vero cells
  AC50: 16.5 µM
  Log AC50 (M): -4.7827 M

## Nc1nc(Nc2ccc([S+](N)(=O)[O-])cc2)nn1C(=O)c1c(F)cccc1F [NCGC00263151-01]
[1]
  CC-v2 (curve class classification v2 of the dose response curve): -2.1
  Efficacy (difference between neutral response and maximum compound response): -94.324
  Max Resp (difference between neutral response and compound response for highest compound concentration): -90.046
  AC50: 1.65e-05 M
[1]; [2]
  AC50: 1.65e-05 M
Vero cells
  AC50: 16.5 µM
  Log AC50 (M): -4.7827 M

## Cc1ccc(C(=O)Nc2ccc(CN3CCN(C)CC3)c(C(F)(F)F)c2)cc1C#Cc1cnc2cccnn12 [NCGC00263152-01]
[1]
  CC-v2 (curve class classification v2 of the dose response curve): -1.1
  Efficacy (difference between neutral response and maximum compound response): -88.579
  Max Resp (difference between neutral response and compound response for highest compound concentration): -98.949
  AC50: 1.85e-06 M
[1]; [2]
  AC50: 1.85e-06 M
Vero cells
  AC50: 1.85 µM
  Log AC50 (M): -5.7327 M

## CC(=O)Nc1ccc([C@H](C)C(=O)Nc2ncc(C(C)C)s2)cc1 [NCGC00263191-01]
[1]
  CC-v2 (curve class classification v2 of the dose response curve): -1.1
  Efficacy (difference between neutral response and maximum compound response): -109.113
  Max Resp (difference between neutral response and compound response for highest compound concentration): -98.511
  AC50: 2.33e-06 M
[1]; [2]
  AC50: 2.33e-06 M
Vero cells
  AC50: 2.33 µM
  Log AC50 (M): -5.6327 M

## C/C=C1\NC(=O)[C@H]2CSSCC/C=C\[C@H](CC(=O)N[C@H](C(C)C)C(=O)N2)OC(=O)[C@H](C(C)C)NC1=O [NCGC00263220-05]
[1]
  CC-v2 (curve class classification v2 of the dose response curve): -1.1
  Efficacy (difference between neutral response and maximum compound response): -96.055
  Max Resp (difference between neutral response and compound response for highest compound concentration): -99.405
  AC50: 2.33e-07 M
[1]; [2]
  AC50: 2.33e-07 M
Vero cells
  AC50: 0.233 µM
  Log AC50 (M): -6.6327 M

## CCOC(CN1C(=O)[C@](CC(=O)Nc2ccc(C)cc2)(NC(=O)Nc2ccc(C)cc2)c2ccccc21)OCC [NCGC00263225-01]
[1]
  CC-v2 (curve class classification v2 of the dose response curve): -2.1
  Efficacy (difference between neutral response and maximum compound response): -106.258
  Max Resp (difference between neutral response and compound response for highest compound concentration): -97.88
  AC50: 2.33e-05 M
[1]; [2]
  AC50: 2.33e-05 M
Vero cells
  AC50: 23.3 µM
  Log AC50 (M): -4.6327 M

## Nc1ccc(C(=O)c2cc3c(ccc4ccccc43)[nH]2)cc1 [NCGC00263233-01]
[1]
  CC-v2 (curve class classification v2 of the dose response curve): -2.1
  Efficacy (difference between neutral response and maximum compound response): -115.821
  Max Resp (difference between neutral response and compound response for highest compound concentration): -99.398
  AC50: 2.08e-05 M
[1]; [2]
  AC50: 2.08e-05 M
Vero cells
  AC50: 20.8 µM
  Log AC50 (M): -4.6827 M

## CN(C)c1ccc(C(=O)NCCCCCCC(=O)NO)cc1 [NCGC00263617-05]
[1]
  CC-v2 (curve class classification v2 of the dose response curve): -1.1
  Efficacy (difference between neutral response and maximum compound response): -93.524
  Max Resp (difference between neutral response and compound response for highest compound concentration): -92.631
  AC50: 1.04e-05 M
[1]; [2]
  AC50: 1.04e-05 M
Vero cells
  AC50: 10.4 µM
  Log AC50 (M): -4.9827 M

## CN1CCCC(CC2c3ccccc3Sc3ccccc32)C1.Cl (centres unmarked) [NCGC00273481-01]
[1]
  CC-v2 (curve class classification v2 of the dose response curve): -3
  Efficacy (difference between neutral response and maximum compound response): -90.373
  Max Resp (difference between neutral response and compound response for highest compound concentration): -72.236
  AC50: 3.69e-05 M
[1]; [2]
  AC50: 3.69e-05 M
Vero cells
  AC50: 36.9 µM
  Log AC50 (M): -4.4327 M

## Cc1c(Cn2c(C)nc3c(C(=O)O)cc(N4CCOCC4)cc32)cccc1C(F)(F)F [NCGC00345796-01]
[1]
  CC-v2 (curve class classification v2 of the dose response curve): -2.2
  Efficacy (difference between neutral response and maximum compound response): -74.499
  Max Resp (difference between neutral response and compound response for highest compound concentration): -73.923
  AC50: 1.47e-05 M
[1]; [2]
  AC50: 1.47e-05 M
Vero cells
  AC50: 14.7 µM
  Log AC50 (M): -4.8327 M

## O=C(CCCCCCNC(=O)c1cnc(N(c2ccccc2)c2ccccc2)nc1)NO [NCGC00345802-01]
[1]
  CC-v2 (curve class classification v2 of the dose response curve): -2.1
  Efficacy (difference between neutral response and maximum compound response): -102.183
  Max Resp (difference between neutral response and compound response for highest compound concentration): -84.021
  AC50: 1.85e-05 M
[1]; [2]
  AC50: 1.85e-05 M
Vero cells
  AC50: 18.5 µM
  Log AC50 (M): -4.7327 M

## CN(C)Cc1c(C(=O)NCCOc2ccc(C(=O)NO)cc2)oc2ccccc12 [NCGC00346486-01]
[1]
  CC-v2 (curve class classification v2 of the dose response curve): -1.1
  Efficacy (difference between neutral response and maximum compound response): -96.645
  Max Resp (difference between neutral response and compound response for highest compound concentration): -98.785
  AC50: 9.28e-06 M
[1]; [2]
  AC50: 9.27e-06 M
Vero cells
  AC50: 9.28 µM
  Log AC50 (M): -5.0327 M

## O=C1NC(=O)/C(=C/c2ccc3nccc(-c4ccncc4)c3c2)S1 [NCGC00346509-02]
[1]
  CC-v2 (curve class classification v2 of the dose response curve): -1.1
  Efficacy (difference between neutral response and maximum compound response): -91.751
  Max Resp (difference between neutral response and compound response for highest compound concentration): -97.47
  AC50: 1.47e-06 M
[1]; [2]
  AC50: 1.47e-06 M
Vero cells
  AC50: 1.47 µM
  Log AC50 (M): -5.8327 M

## Cc1ccc(NC(=O)c2ccc(CN3CC[C@H](N(C)C)C3)c(C(F)(F)F)c2)cc1Nc1ncc(-c2cncnc2)cn1 [NCGC00346514-01]
[1]
  CC-v2 (curve class classification v2 of the dose response curve): -2.1
  Efficacy (difference between neutral response and maximum compound response): -111.251
  Max Resp (difference between neutral response and compound response for highest compound concentration): -100.269
  AC50: 1.65e-05 M
[1]; [2]
  AC50: 1.65e-05 M
Vero cells
  AC50: 16.5 µM
  Log AC50 (M): -4.7827 M

## C[C@@H]1CC[C@@]2(OC1)O[C@H]1C[C@H]3[C@@H]4CC=C5C[C@@H](O[C@@H]6O[C@H](CO)[C@@H](O[C@@H]7O[C@@H](C)[C@H](O)[C@@H](O)[C@H]7O)[C@H](O)[C@H]6O[C@@H]6O[C@@H](C)[C@H](O)[C@@H](O)[C@H]6O)CC[C@]5(C)[C@H]4CC[C@]3(C)[C@H]1[C@@H]2C [NCGC00346600-01]
[1]
  CC-v2 (curve class classification v2 of the dose response curve): -1.1
  Efficacy (difference between neutral response and maximum compound response): -96.499
  Max Resp (difference between neutral response and compound response for highest compound concentration): -99.01
  AC50: 3.29e-06 M
[1]; [2]
  AC50: 3.29e-06 M
Vero cells
  AC50: 3.29 µM
  Log AC50 (M): -5.4827 M

## O=C(O)C1=CO[C@@H](O[C@@H]2O[C@H](CO)[C@@H](O)[C@H](O)[C@H]2O)[C@@H]2C(CO)=CC[C@H]12 [NCGC00346663-03]
[1]
  CC-v2 (curve class classification v2 of the dose response curve): -3
  Efficacy (difference between neutral response and maximum compound response): -105.712
  Max Resp (difference between neutral response and compound response for highest compound concentration): -86.968
  AC50: 2.56e-05 M
[1]; [2]
  AC50: 2.56e-05 M
Vero cells
  AC50: 25.6 µM
  Log AC50 (M): -4.5925 M

From article PMC8765781, “A platform of assays for the discovery of anti-Zika small-molecules with activity in a 3D-bioprinted outer-blood-retina model” (PLoS ONE, 2022)
